Measured values reported in patent US20130281504A1, “Reduction of Microglia-Mediated Neurotoxicity by KCa3.1 Inhibition” (THE REGENTS OF THE UNIVERSITY OF CALIFORNIA, priority 2010, published 2013).

Key:
Type in all cases: cell-based, mouse
microglia [1] = assay: Assay for nitric oxide (nitrite) in microglia conditioned medium; conditions: for AβO-induced increase of microglia NO production: 5 μM 1400 W, 100 μM L-NIL, FIG. 8A
hippocampal neurons [2] = assay: Indirect neurotoxicity of conditioned medium from AβO-treated microglia on hippocampal neurons; conditions: microglia co-treated 24 hrs with 1400 W or L-NIL; 25% CM; FIG. 8B
Protocol: Hippocampal neuronal cultures were prepared from newborn wild type C57BL/6J mice according to the method of Xiang et al (26). Neurons were cultured in NB/B27 at a density of 2.5×10^5 cells/well in 12-well plates or 8×10^5 cells/well in 6-well plates for at least 14 days before they were treated with microglia CM.
Hippocampal neurons were prepared as described above and were plated onto 96-well plate at a density of 6×10^4 cells/well and cultured for 14 days. CM from microglia cultures was added onto neurons with indicated dilutions, and cultures were incubated for 24 hrs.
For immunofluorescent staining of neurons, cultures were fixed in 4% paraformaldehyde and stained with anti-PSD95 (1:200, Cell Signaling), anti-MAP2 (1:500, Chemicon) and anti-acetylated α-tubulin (1:250, Zymed). […] Immunostained images were observed under a Nikon Eclipse E600 microscope and photographed by a digital camera (SPOT RTke, SPOT Diagnostics, Sterling Heights, Mich.).
For quantification of the PSD95-immunoreactive puncta along the dendrites, photomicrographs of PSD95 immunostained cultures were randomly taken from each culture condition. The images were transformed to 8 bit gray scale and analyzed with the Image J program. The number of puncta in each photomicrograph was counted and normalized by dendritic length. The photography and analysis were conducted in an investigator-blinded manner

hippocampal slices = assay: AβO-treated organotypic hippocampal slice cultures; conditions: iNOS inhibitors applied 1 hr prior to AβO; for AβO-induced NO production by hippocampal slices: FIG. 8C; for AβO-induced neuronal damage (PI uptake) in hippocampal slices: FIG. 8D
Protocol: Hippocampal slice cultures (400 μm-thick) were prepared from 7-day-old C57BL/6J mice as previously described (25) and cultured for 10 days in vitro before use. Neuronal damage in the slices was monitored by PI uptake following Bernardino et al (27). PI itself is not toxic to neurons (27). […] After 24 hrs, the slices were observed under a Nikon Eclipse E600 microscope and the red (630 nm) fluorescence emitted by PI taken up by damaged cells was photographed by a digital camera (SPOT RTke, SPOT Diagnostics, Sterling Heights, Mich.) with fixed exposure time.
For immunofluorescent staining of neurons, cultures were fixed in 4% paraformaldehyde and stained with anti-PSD95 (1:200, Cell Signaling), anti-MAP2 (1:500, Chemicon) and anti-acetylated α-tubulin (1:250, Zymed). For immunofluorescent staining of microglia, cultures or hippocampal slices were fixed in 4% paraformaldehyde and stained with anti-IBA1 (1:500, Wako Chemicals USA), anti-SRA (E-20, 1:200, Santa Cruz Biotechnology), and anti-CD11b (1:200, AbD Serotec USA, Raleigh, N.C.). The fixed cells or hippocampal slices were incubated with antibodies for overnight at 4° C. followed by secondary Alexa488 conjugated anti-mouse or Alexa568 conjugated anti-rabbit antibody (1:700, Molecular probes). Immunostained images were observed under a Nikon Eclipse E600 microscope and photographed by a digital camera (SPOT RTke, SPOT Diagnostics, Sterling Heights, Mich.).
(§1) To obtain lysates, cells or tissues were washed with ice-cold PBS and incubated with a buffer containing 50 mmol/L Tris-HCl (pH 7.4), 150 mmol/L NaCl, 2% SDS, proteinase inhibitor cocktail (Sigma), and phosphatase inhibitor cocktail (Sigma). Lysates were briefly sonncated and cleared by centrifugation at 50,000 rpm for 10 min. Equivalent amounts of protein were analyzed by Tris/HCL gel electrophoresis. Proteins were transferred to polyvinylidene difluoride membranes and probed with antibodies. Visualization was performed using enhanced chemiluminescence (ECL, Amersham Pharmacia, Piscataway, N.J.).
Conditioned medium collected from microglia cultures (1×10^5/0.75 cm^2) and hippocampal slices treated with Aβ for 24 hrs were analyzed by the Nitric Oxide Quantization Kit according to the protocol of the manufacturer (Active Motif, Carlsbad, Calif.). Data were normalized to the amount of total protein.

microglia [3] = assay: AβO-induced microglia proliferation/activation (cell number); conditions: for microglia cell counts, % of solvent-treated controls: mean±S.E
p38MAPK = p38MAPK phosphorylation in microglia (Western blot); conditions: AβO, 30 minutes
Protocol: Primary microglia cultures derived from newborn C57BL/6J mice were prepared from mixed glia cultures with the “shaking off” method described by Maezawa, I., et al.; (2006) FASEB J 20, 797-799. […] To obtain conditioned medium (CM) for treating neurons, microglia were first cultured in 24-well culture plates at a density of 1.3×10^5 cells/cm^2 for 24 hrs in DMEM with 10% fetal bovine serum (DMEM10). Cultures were washed extensively and changed to the Neurobasal medium with B27 supplement (NB/B27, Invitrogen) without serum and cultured for another 24 hrs. The NB/B27-based microglia CMs were collected, briefly centrifuged, and used immediately or frozen for future uses.
as §1
The following primary antibodies (dilutions) were used: anti-p38MAPK (1:1000, Cell Signaling Technology, Boston, Mass.), anti-phospho-p38MAPK (1:1000, Cell Signaling Technology), anti-Synaptophysin (1:1000, Abcam), anti-PSD95 (1:1000, cell signaling), anti-GRIP 1 (1:1000, UpState), anti-MAP2 (1:1000, Chemicon), anti-acetylated α-tubulin (1:2000, Zymed), and anti-β-actin (1:3000, Sigma). Secondary antibodies were HRP-conjugated anti-rabbit, anti-goat, or anti-mouse antibody (1:3000 Amersham).

NFκB = NFκB assay in microglia; conditions: AβO, 2 hrs
Protocol: The detection of cells with active NFκB was performed according to the method described by Franciosi, S., et al.; (2006) J Neurosci 26, 11652-11664. Briefly, microglia were plated as described above and treated with activators for 2 hrs. Cells were fixed and stained with anti-NF-κBp65 antibody (1:250, Chemicon) and with the nuclear dye DAPI.

hippocampal neurons [4] = assay: Viability of cultured hippocampal neurons, direct AβO; conditions: direct addition

CC(=N)NCc1cccc(CN)c1 [1400 W, N-[(3-aminomethyl)benzyl]acetamidine, reference compound]
AβO-induced increase of microglia NO production (microglia [1]): prevented
AβO-induced microglial neurotoxicity (neuronal viability) (hippocampal neurons [2]): blocked
AβO-induced NO production by hippocampal slices (hippocampal slices): blocked
AβO-induced neuronal damage (PI uptake) in hippocampal slices (hippocampal slices): blocked

Nc1c(/N=N/c2ccc(-c3ccc(/N=N/c4cc(S(=O)(=O)O)c5ccccc5c4N)cc3)cc2)cc(S(=O)(=O)O)c2ccccc12 [Congo red, reference compound]
AβO mitogenic effect on microglia (cell numbers) (microglia [3]; 20 nM AβO, 24 hrs, A11 50 nM, CR 100 nM, FIG. 1D): blocked
microglia activation / mitogenic effect induced by human brain AβO (microglia [3]; soluble AD hippocampus extracts): blocked

CC(=N)NCCCC[C@H](N)C(=O)O [L-NIL, N-iminoethyl-Llysine, reference compound]
AβO-induced increase of microglia NO production (microglia [1]): prevented
AβO-induced microglial neurotoxicity (neuronal viability) (hippocampal neurons [2]): blocked
AβO-induced NO production by hippocampal slices (hippocampal slices): blocked
AβO-induced neuronal damage (PI uptake) in hippocampal slices (hippocampal slices): blocked

AβO: synthetic Aβ42 peptide oligomers, microglia activator
AβO concentration at which microglia proliferation maximizes (microglia [3]): around 50 nM
AβO concentration at which microglia proliferation starts (microglia [3]): 5 nM
microglia cell counts, % of solvent-treated controls (microglia [3]; 20 nM AβO, 24 hr): 184±8.59%
microglia cell counts, % of solvent-treated controls (microglia [3]; 20 nM AβO, 48 hr): 330±21.8%
phosphorylated p38MAPK, % of vehicle treatment control (p38MAPK): 225±38%
increase of cells with active NFκB immunoreactivity (NFκB): six-fold increase
increase of NO release per cell (microglia [1]; AβO 24 hr, normalized to total cellular protein): ~80%
AβO concentrations affecting viability of cultured hippocampal neurons (hippocampal neurons [4]): above 100 nM

polyinosinic acid [poly I, reference compound]
AβO-induced microglia activation / proliferation (microglia [3]; 20 nM AβO 24 hrs, 100 ng/ml poly I, 10 μg/ml E-20, 20 μM doxycycline, 1 μM TRAM-34, FIG. 3): blocked
